Values of other authors as cited in patent publication US20040202693A1, “Pharmaceutical compositions releasing their active agents from a buccal or sublingual location to overcome an absorption window problem” (priority 2003, published 2004).
Where two headings read alike, the source gives them in different places.

What was measured:
[1] = oral administration in conventional dosage forms, upper portion of the gastrointestinal tract

absorption [1] | SMILES | bioavailability (after oral administration) | absorption (after rectal administration) | bioavailability (enteric-coated formulation)
rapidly and almost completely absorbed | C[C@H]1c2cccc(O)c2C(=O)C2=C(O)[C@]3(O)C(=O)C(C(N)=O)=C(O)[C@@H](N(C)C)[C@@H]3[C@@H](O)[C@@H]21 [Doxycycline] |  |  | 
 | O=C(O[C@H]1C[C@H]2CC[C@@H](C1)[N+]21CCCC1)C(O)(c1ccccc1)c1ccccc1 [Trospium chloride] | approximately 10% | almost no absorption at all | significant decrease of bioavailability
